This is an account of results in patent publication US12589143B2, “Human anti-PD-L1 peptide vaccines and methods of their use” (priority 2019, dated 2026).

Where no end group is shown, it is not given here.

In this experiment the test system is CT26 colon carcinoma cell line. As to the kind of experiment: CT26 WT tumor challenge in immunized Balb/c mice. In kind it is in vivo. Conditions: for tumor inhibition versus PBS: Balb/c; for average tumor growth inhibition: day 14 and 16. The text has this: FIGS. 5A, 5B, 5C, and 5D show the experimental scheme to test the immunization with PD-L1 in Balb/c mice. […] Balb/c mice 6-8 weeks old, were immunized with MVF-peptide immunogens emulsified in ISA 720 with nor-MDP three times and three weeks apart. Mice were immunized with MVF-PD-L1 vaccine constructs [PD-L1(36-53), PD-L1(50-67), PD-L1(95-112), PD-L1(130-147)] prior to tumor challenge. Blood was collected weekly and sera tested for antibody titers by ELISA. Two weeks after the third immunization (3Y), the mice were engrafted with CT26 WT tumor cells 10^5 per mouse Control mice were treated twice weekly with PBS as negative control and twice weekly with anti-mPD-L1 mAb (10F.9G2) as positive control starting 2 days after tumor challenge. Tumor growths were observed twice weekly and measured by calipers.
The peptide vaccines were dissolved in water and emulsified in Montanide ISA 720 (1:1) and 100 μg nor-MDP (N-acetylglucosamine-3yl-acetyl-1-alanyl-d-isoglutamine). Female Balb/c mice (Charles River Laboratories) at the age of 5 to 6 weeks were immunized three times at 3-week intervals with 100 μg peptide vaccine, and 15 days after the third immunization, the mice were challenged s.c. with CT-26 tumor cells (100,000 per mouse). Mice immunized with an irrelevant MVF peptide chimera were used as a negative control.
Mice treated twice a week with anti-mouse PD-L1 MAb (Bio X Cell, West Lebanon, NH) 200 ug/dose was used as a positive control. Tumor growth was monitored for up to 18 days after challenge. During immunization, blood was drawn biweekly and used in ELISA to monitor Ab titers. The mice were euthanized at the end of treatment and tumors extracted and weighed samples of the tumors were saved for further study and for histological examination. The spleens were also collected for further examination.
Two weeks after the third immunization (3Y), the mice were inoculated subcutaneously (s.c) with CT26 carcinoma cells (1×10^5 cells per mouse) and tumor formation was monitored on a daily basis afterwards. Mice treated with PBS served as negative control, and twice weekly treated mice with 200 μg/dose injections of anti-mouse PD-L1 monoclonal antibody (mAb clone 10F.9G2) served as positive control. Tumor growth was monitored daily and measured by caliper. […] PD-L1 B-cell epitope vaccines treatment had similar and significant reduction in tumor growth at day 16 post challenge as compared to negative control treatment with PBS (FIG. 9).
6-8 weeks old BALB/c mice (Charles River, Wilmington, MA) were used as standard animal models. Mouse CT26 colon carcinoma cell line was purchased from American Type Culture Collection Cells and were regularly cultured in RPMI1640 medium containing 10% FBS. CT26/HER2 cells were kindly provided by M. Penichet. Vaccines were dissolved in sterile water and emulsified in Montanide ISA 720 (1:1). Female Balb/c mice (Charles River Laboratories) at the age of 6-8 weeks were immunized three times at 3-week intervals with 100 μg of each peptide vaccine, and 2 weeks after the third immunization, the mice were challenged with CT26 and/or CT26/HER-2 tumor cells, which were implanted subcutaneously (s.c) on the right flank (1×10^5 per mouse). 200 μg of rat α-mouse PD-L1 mAb 10F.9G2 (Bio X Cell, West Lebanon, NH) were administered intraperitoneally (i.p.), twice weekly following tumor inoculation in the control group. Mice were monitored and scored for the formation of palpable tumors on a daily basis and sacrificed if tumors became necrotic or exceeded the predetermined size of 2,000 mm^3. Tumor volumes were measured in cubic millimeters with calipers and calculated with the following formula: A×B^2×0.5, where A is the largest diameter, and B is the widest point perpendicular to length. During immunization, blood was drawn weekly and used in ELISA to monitor antibody titers.
Tumor sizes were observed daily and measured by caliper. Tumor volumes were calculated by formula: Volume=(Length*Width*Width)/2. […]

“KLLSLIKGVIVHRLEGVEGPSLFVHGEEDLKVQHSSYRQR (KLLSLIKGVIVHRLEGVEGPSLFVHGEEDLKVQHSSYRQR-NH2) [PD-L1(50)]”: the “tumor inhibition versus PBS” value was “significant inhibition of tumor growth” and the “average tumor growth inhibition” value is “strongest average tumor growth inhibition”.

As to “KLLSLIKGVIVHRLEGVEGPSLLIVYWEMEDKNIIQFVHG (KLLSLIKGVIVHRLEGVEGPSLLIVYWEMEDKNIIQFVHG-NH2) [PD-L1(36)]”, the “average tumor growth inhibition” value is recorded as “strongest average tumor growth inhibition”.

Consider “KLLSLIKGVIVHRLEGVEGPSLVTSEHELTCQAEGYPKAE (KLLSLIKGVIVHRLEGVEGPSLVTSEHELTCQAEGYPKAE-NH2) [PD-L1(130)]”, for which the levels of lesions result is reported as “lowest levels of lesions”, the “percentage of tumor growth inhibition compared to negative control” value is listed as “Significant higher percentage of tumor growth inhibition”, the “tumor inhibition versus PBS” value is “significant inhibition of tumor growth” and the “average tumor growth inhibition” value is “strongest average tumor growth inhibition”. The survival rate entry (Kaplan-Meier method) is listed as “highest survival rate”.
